Test results as given in patent US9290777B2, “Putative cytokinin receptor and methods for use thereof” (NATIONAL UNIVERSITY OF SINGAPORE, priority 2007, dated 2016).

Key:
ARR6 = test: qRT-PCR of cytokinin responsive gene after BA pulse, fold change vs untreated wild type; type: cell-based, Arabidopsis thaliana
ARR1 and ARR2 = test: qRT-PCR of type-B ARRs after BA treatment; type: cell-based, Arabidopsis thaliana; details: transgenic lines
Procedure: For quantitative real-time PCR (qRT-PCR) analysis of cytokinin-inducible gene expression, seeds were germinated on MS medium with 3% (w/v) sucrose and grown for 6 days. Cytokinin treatment was carried out by incubating seedlings in the same MS+sucrose liquid medium (no agar) supplemented with 0, 0.01, 0.1, 1 or 5 μM [solubilized in 0.1% dimethylsulfoxide (DMSO) and diluted with the MS medium] for 5 min, 15 min, 30 min or 1 h. The control seedlings were incubated with DMSO (0.1%, the concentration used to dissolve cytokinins for the treatment) for the corresponding durations and used for expression analysis. Before RNA preparation, WT, OE and AS seedlings were pooled and stored in RNAlater solution (Qiagen, Valencia, Calif.). Total RNA was extracted using the Rneasy Plant Mini Kit (Qiagen). SYBRgreen RT-PCR reagents (Applied Biosystems) were used to synthesize double-stranded cDNA. The number of transcripts present in biological replicates each of WT, OE and AS seedlings, with or without BA and DMSO, was determined from three independent replicates. Fold induction of the transcripts was calculated according to the manufacturer's instructions (ABI Prism 7700 Sequence Detection System, User Bulletin #2).

## c1ccc(CNc2ncnc3nc[nH]c23)cc1 [benzyladenine]
ARR6; BA 0.01 μM, 5 min, AS1, ↑ up
  ARR6 fold change: 4.12↑
ARR6; BA 0.01 μM, 5 min, AS8, ↑ up
  ARR6 fold change: 7.1↑
ARR6; BA 0.01 μM, 5 min, AS21, ↑ up
  ARR6 fold change: 9.2↑
ARR6; BA 0.01 μM, 5 min, OE1, ↓ down
  ARR6 fold change: 5.51↓
ARR6; BA 0.01 μM, 5 min, OE12, ↓ down
  ARR6 fold change: 6.87↓
ARR6; BA 0.01 μM, 5 min, OE18, ↓ down
  ARR6 fold change: 8.56↓
ARR6; BA 0.01 μM, 5 min, Wild type, ↑ up
  ARR6 fold change: 4.13↑
ARR6; BA 0.01 μM, 15 min, AS1, ↑ up
  ARR6 fold change: 4.57↑
ARR6; BA 0.01 μM, 15 min, AS8, ↑ up
  ARR6 fold change: 7.41↑
ARR6; BA 0.01 μM, 15 min, AS21, ↑ up
  ARR6 fold change: 9.58↑
ARR6; BA 0.01 μM, 15 min, OE1, ↓ down
  ARR6 fold change: 5.33↓
ARR6; BA 0.01 μM, 15 min, OE12, ↓ down
  ARR6 fold change: 6.56↓
ARR6; BA 0.01 μM, 15 min, OE18, ↓ down
  ARR6 fold change: 8.32↓
ARR6; BA 0.01 μM, 15 min, Wild type, ↑ up
  ARR6 fold change: 4.67↑
ARR6; BA 0.01 μM, 30 min, AS1, ↑ up
  ARR6 fold change: 5.98↑
ARR6; BA 0.01 μM, 30 min, AS8, ↑ up
  ARR6 fold change: 7.86↑
ARR6; BA 0.01 μM, 30 min, AS21, ↑ up
  ARR6 fold change: 9.79↑
ARR6; BA 0.01 μM, 30 min, OE1, ↓ down
  ARR6 fold change: 5.11↓
ARR6; BA 0.01 μM, 30 min, OE12, ↓ down
  ARR6 fold change: 6.13↓
ARR6; BA 0.01 μM, 30 min, OE18, ↓ down
  ARR6 fold change: 8.13↓
ARR6; BA 0.01 μM, 30 min, Wild type, ↑ up
  ARR6 fold change: 4.98↑
ARR6; BA 0.01 μM, 1 h, AS1, ↑ up
  ARR6 fold change: 6.2↑
ARR6; BA 0.01 μM, 1 h, AS8, ↑ up
  ARR6 fold change: 7.98↑
ARR6; BA 0.01 μM, 1 h, AS21, ↑ up
  ARR6 fold change: 10.15↑
ARR6; BA 0.01 μM, 1 h, OE1, ↓ down
  ARR6 fold change: 4.91↓
ARR6; BA 0.01 μM, 1 h, OE12, ↓ down
  ARR6 fold change: 5.06↓
ARR6; BA 0.01 μM, 1 h, OE18, ↓ down
  ARR6 fold change: 7.98↓
ARR6; BA 0.01 μM, 1 h, Wild type, ↑ up
  ARR6 fold change: 5.15↑
ARR6; BA 0.1 μM, 5 min, AS1, ↑ up
  ARR6 fold change: 6.14↑
ARR6; BA 0.1 μM, 5 min, AS8, ↑ up
  ARR6 fold change: 8.12↑
ARR6; BA 0.1 μM, 5 min, AS21, ↑ up
  ARR6 fold change: 10.31↑
ARR6; BA 0.1 μM, 5 min, OE1, ↓ down
  ARR6 fold change: 5.1↓
ARR6; BA 0.1 μM, 5 min, OE12, ↓ down
  ARR6 fold change: 5.91↓
ARR6; BA 0.1 μM, 5 min, OE18, ↓ down
  ARR6 fold change: 7.89↓
ARR6; BA 0.1 μM, 5 min, Wild type, ↑ up
  ARR6 fold change: 5.36↑
ARR6; BA 0.1 μM, 15 min, AS1, ↑ up
  ARR6 fold change: 6.39↑
ARR6; BA 0.1 μM, 15 min, AS8, ↑ up
  ARR6 fold change: 8.32↑
ARR6; BA 0.1 μM, 15 min, AS21, ↑ up
  ARR6 fold change: 10.46↑
ARR6; BA 0.1 μM, 15 min, OE1, ↓ down
  ARR6 fold change: 5.04↓
ARR6; BA 0.1 μM, 15 min, OE12, ↓ down
  ARR6 fold change: 5.71↓
ARR6; BA 0.1 μM, 15 min, OE18, ↓ down
  ARR6 fold change: 5.72↓
ARR6; BA 0.1 μM, 15 min, Wild type, ↑ up
  ARR6 fold change: 5.58↑
ARR6; BA 0.1 μM, 30 min, AS1, ↑ up
  ARR6 fold change: 6.69↑
ARR6; BA 0.1 μM, 30 min, AS8, ↑ up
  ARR6 fold change: 8.57↑
ARR6; BA 0.1 μM, 30 min, AS21, ↑ up
  ARR6 fold change: 10.68↑
ARR6; BA 0.1 μM, 30 min, OE1, ↓ down
  ARR6 fold change: 4.9↓
ARR6; BA 0.1 μM, 30 min, OE12, ↓ down
  ARR6 fold change: 5.59↓
ARR6; BA 0.1 μM, 30 min, OE18, ↓ down
  ARR6 fold change: 5.36↓
ARR6; BA 0.1 μM, 30 min, Wild type, ↑ up
  ARR6 fold change: 5.89↑
ARR6; BA 0.1 μM, 1 h, AS1, ↑ up
  ARR6 fold change: 6.98↑
ARR6; BA 0.1 μM, 1 h, AS8, ↑ up
  ARR6 fold change: 8.99↑
ARR6; BA 0.1 μM, 1 h, AS21, ↑ up
  ARR6 fold change: 10.97↑
ARR6; BA 0.1 μM, 1 h, OE1, ↓ down
  ARR6 fold change: 4.67↓
ARR6; BA 0.1 μM, 1 h, OE12, ↓ down
  ARR6 fold change: 4.61↓
ARR6; BA 0.1 μM, 1 h, OE18, ↓ down
  ARR6 fold change: 5.01↓
ARR6; BA 0.1 μM, 1 h, Wild type, ↑ up
  ARR6 fold change: 5.99↑
ARR6; BA 1.0 μM, 5 min, AS1, ↑ up
  ARR6 fold change: 7.43↑
ARR6; BA 1.0 μM, 5 min, AS8, ↑ up
  ARR6 fold change: 9.01↑
ARR6; BA 1.0 μM, 5 min, AS21, ↑ up
  ARR6 fold change: 10.99↑
ARR6; BA 1.0 μM, 5 min, OE1, ↓ down
  ARR6 fold change: 4.96↓
ARR6; BA 1.0 μM, 5 min, OE12, ↓ down
  ARR6 fold change: 5.19↓
ARR6; BA 1.0 μM, 5 min, OE18, ↓ down
  ARR6 fold change: 4.36↓
ARR6; BA 1.0 μM, 5 min, Wild type, ↑ up
  ARR6 fold change: 6.1↑
ARR6; BA 1.0 μM, 15 min, AS1, ↑ up
  ARR6 fold change: 7.68↑
ARR6; BA 1.0 μM, 15 min, AS8, ↑ up
  ARR6 fold change: 9.43↑
ARR6; BA 1.0 μM, 15 min, AS21, ↑ up
  ARR6 fold change: 11.12↑
ARR6; BA 1.0 μM, 15 min, OE1, ↓ down
  ARR6 fold change: 4.71↓
ARR6; BA 1.0 μM, 15 min, OE12, ↓ down
  ARR6 fold change: 5.01↓
ARR6; BA 1.0 μM, 15 min, OE18, ↓ down
  ARR6 fold change: 4.21↓
ARR6; BA 1.0 μM, 15 min, Wild type, ↑ up
  ARR6 fold change: 6.31↑
ARR6; BA 1.0 μM, 30 min, AS1, ↑ up
  ARR6 fold change: 7.73↑
ARR6; BA 1.0 μM, 30 min, AS8, ↑ up
  ARR6 fold change: 9.69↑
ARR6; BA 1.0 μM, 30 min, AS21, ↑ up
  ARR6 fold change: 11.35↑
ARR6; BA 1.0 μM, 30 min, OE1, ↓ down
  ARR6 fold change: 4.49↓
ARR6; BA 1.0 μM, 30 min, OE12, ↓ down
  ARR6 fold change: 4.89↓
ARR6; BA 1.0 μM, 30 min, OE18, ↓ down
  ARR6 fold change: 4.01↓
ARR6; BA 1.0 μM, 30 min, Wild type, ↑ up
  ARR6 fold change: 6.59↑
ARR6; BA 1.0 μM, 1 h, AS1, ↑ up
  ARR6 fold change: 8.01↑
ARR6; BA 1.0 μM, 1 h, AS8, ↑ up
  ARR6 fold change: 9.93↑
ARR6; BA 1.0 μM, 1 h, AS21, ↑ up
  ARR6 fold change: 11.76↑
ARR6; BA 1.0 μM, 1 h, OE1, ↓ down
  ARR6 fold change: 3.21↓
ARR6; BA 1.0 μM, 1 h, OE12, ↓ down
  ARR6 fold change: 3.56↓
ARR6; BA 1.0 μM, 1 h, OE18, ↓ down
  ARR6 fold change: 3.01↓
ARR6; BA 1.0 μM, 1 h, Wild type, ↑ up
  ARR6 fold change: 6.87↑
ARR6; BA 5.0 μM, 5 min, AS1, ↑ up
  ARR6 fold change: 7.98↑
ARR6; BA 5.0 μM, 5 min, AS8, ↑ up
  ARR6 fold change: 9.98↑
ARR6; BA 5.0 μM, 5 min, AS21, ↑ up
  ARR6 fold change: 11.43↑
ARR6; BA 5.0 μM, 5 min, OE1, ↓ down
  ARR6 fold change: 4.19↓
ARR6; BA 5.0 μM, 5 min, OE12, ↓ down
  ARR6 fold change: 4.67↓
ARR6; BA 5.0 μM, 5 min, OE18, ↓ down
  ARR6 fold change: 3.45↓
ARR6; BA 5.0 μM, 5 min, Wild type, ↑ up
  ARR6 fold change: 7.52↑
ARR6; BA 5.0 μM, 15 min, AS1, ↑ up
  ARR6 fold change: 8.01↑
ARR6; BA 5.0 μM, 15 min, AS8, ↑ up
  ARR6 fold change: 10.07↑
ARR6; BA 5.0 μM, 15 min, AS21, ↑ up
  ARR6 fold change: 11.56↑
ARR6; BA 5.0 μM, 15 min, OE1, ↓ down
  ARR6 fold change: 4.01↓
ARR6; BA 5.0 μM, 15 min, OE12, ↓ down
  ARR6 fold change: 4.62↓
ARR6; BA 5.0 μM, 15 min, OE18, ↓ down
  ARR6 fold change: 3.18↓
ARR6; BA 5.0 μM, 15 min, Wild type, ↑ up
  ARR6 fold change: 7.69↑
ARR6; BA 5.0 μM, 30 min, AS1, ↑ up
  ARR6 fold change: 8.23↑
ARR6; BA 5.0 μM, 30 min, Wild type, ↑ up
  ARR6 fold change: 7.89↑
ARR1 and ARR2
  ARR1 and ARR2 transcript levels: not significantly affected
